Results taken from patent US9902702B2, “Spirocycloheptanes as inhibitors of rock” (BRISTOL-MYERS SQUIBB COMPANY, priority 2014, dated 2018).

The molecules below were run against ROCK2 (Homo sapiens, UniProt O75116) (assay: ROCK assay: phosphorylation of FITC peptide substrate, LABCHIP 3000 mobility shift). Settings: 5 μM ATP, 1.5 μM peptide substrate; read-out: ROCK2 Activity (ROCK IC50 range).
Assay type: biochemical
Outline: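 Rho kinase variant phosphorylates 1.5 μM FITC-AHA-AKRRRLSSLRA-OH with 5 μM ATP in 20 mM HEPES pH 7.5, 20 mM MgCl2, 0.015% Brij-35, 4 mM DTT, DMSO <2%. EDTA stops the reaction, and phospho and non-phospho peptides are resolved by LabChip 3000 mobility shift. IC50 from dose-response curve fit.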

ROCK2, sequence (O75116 whole entry, species assumed): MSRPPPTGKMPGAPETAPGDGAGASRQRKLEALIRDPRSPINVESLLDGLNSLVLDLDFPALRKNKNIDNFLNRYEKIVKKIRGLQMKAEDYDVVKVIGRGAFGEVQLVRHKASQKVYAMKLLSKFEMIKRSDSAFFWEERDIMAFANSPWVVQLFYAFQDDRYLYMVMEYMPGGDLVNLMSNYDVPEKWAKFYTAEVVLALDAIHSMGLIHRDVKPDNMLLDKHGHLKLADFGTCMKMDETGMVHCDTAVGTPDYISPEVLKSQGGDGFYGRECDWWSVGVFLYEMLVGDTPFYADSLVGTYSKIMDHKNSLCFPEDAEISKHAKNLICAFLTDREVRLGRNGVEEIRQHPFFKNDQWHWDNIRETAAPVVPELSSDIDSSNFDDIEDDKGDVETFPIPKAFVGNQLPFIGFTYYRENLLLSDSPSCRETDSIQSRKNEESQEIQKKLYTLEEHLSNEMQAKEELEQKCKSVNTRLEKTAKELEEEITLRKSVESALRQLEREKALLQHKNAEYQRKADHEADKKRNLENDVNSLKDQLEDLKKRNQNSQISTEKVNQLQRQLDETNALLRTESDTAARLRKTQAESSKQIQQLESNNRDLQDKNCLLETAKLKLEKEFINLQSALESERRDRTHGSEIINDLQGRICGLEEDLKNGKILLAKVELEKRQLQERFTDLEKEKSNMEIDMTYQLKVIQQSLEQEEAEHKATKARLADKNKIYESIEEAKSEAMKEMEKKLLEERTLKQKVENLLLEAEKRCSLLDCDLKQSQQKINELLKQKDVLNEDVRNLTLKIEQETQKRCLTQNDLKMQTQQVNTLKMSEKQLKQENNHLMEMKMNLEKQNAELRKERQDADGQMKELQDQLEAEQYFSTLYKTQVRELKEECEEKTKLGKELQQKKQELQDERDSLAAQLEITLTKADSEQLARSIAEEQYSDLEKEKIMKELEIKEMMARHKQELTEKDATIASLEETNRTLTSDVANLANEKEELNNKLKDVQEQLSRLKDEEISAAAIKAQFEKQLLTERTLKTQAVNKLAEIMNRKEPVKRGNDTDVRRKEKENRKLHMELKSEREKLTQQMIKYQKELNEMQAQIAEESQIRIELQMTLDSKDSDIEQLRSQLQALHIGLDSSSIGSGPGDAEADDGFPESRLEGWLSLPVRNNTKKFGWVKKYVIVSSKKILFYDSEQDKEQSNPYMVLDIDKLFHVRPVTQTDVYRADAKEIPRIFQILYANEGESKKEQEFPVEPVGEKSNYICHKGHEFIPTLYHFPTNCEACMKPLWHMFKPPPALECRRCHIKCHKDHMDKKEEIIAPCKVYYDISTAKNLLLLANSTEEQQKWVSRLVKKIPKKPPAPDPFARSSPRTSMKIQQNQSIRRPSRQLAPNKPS

Row | IC50 [nM] | Compound
1 | 2.01 to 5 | O=C(NC1CC2(C1)CC(c1n[nH]c(=O)c3ccccc13)C2)N1CCc2cc(-c3cnn(C4CCOC4)c3)ccc21 [Example 243, N-((aR)-6-(4-oxo-3,4-dihydrophthalazin-1-yl)spiro[3.3]heptan-2-yl)-5-(1-(tetrahydrofuran-3-yl)-1H-pyrazol-4-yl)indoline-1-carboxamide]
2 | 2.01 to 5 | Cc1nn(C)c(C)c1-c1ccc2c(c1)CN(C(=O)NC1CC3(C1)CC(c1n[nH]c(=O)c4ccccc14)C3)C2 [Example 246, N-((aR)-6-(4-oxo-3,4-dihydrophthalazin-1-yl)spiro[3.3]heptan-2-yl)-5-(1,3,5-trimethyl-1H-pyrazol-4-yl)isoindoline-2-carboxamide]
3 | 5.1 to 15 | CC(C)(C)OC(=O)N1CCc2c(C(=O)N[C@H]3CC4(C3)C[C@H](c3n[nH]c(=O)c5ccccc53)C4)csc2C1 (stereo partly drawn) [Example 272, tert-butyl 3-(((aR)-6-(4-oxo-3,4-dihydrophthalazin-1-yl)spiro[3.3]heptan-2-yl)carbamoyl)-4,5-dihydrothieno[2,3-c]pyridine-6(7H)-carboxylate]
4 | 0.2 to 2 | [H][C@]1(c2n[nH]c(=O)c3ccccc32)C[C@]2(C[C@@H](NC(=O)c3cnc4cc(N5CCC(F)(F)CC5)ccn34)C2)C1 (stereo partly drawn) [Example 391, 7-(4,4-difluoropiperidin-1-yl)-N-((aR)-6-(4-oxo-3,4-dihydrophthalazin-1-yl)spiro[3.3]heptan-2-yl)imidazo[1,2-a]pyridine-3 carboxamide]
5 | 5.1 to 15 | [H][C@]1(c2n[nH]c(=O)c3ccccc32)C[C@]2(C[C@@H](NC(=O)c3ccc(-c4cn[nH]c4)cc3)C2)C1 (stereo partly drawn) [Example 337, N-((aR)-6-(4-oxo-3,4-dihydrophthalazin-1-yl)spiro[3.3]heptan-2-yl)-4-(1H-pyrazol-4-yl)benzamide]
6 | 5.1 to 15 | O=c1[nH]nc([C@H]2CC3(C[C@H](Nc4nnc(-c5ccccc5)s4)C3)C2)c2ccccc12 (stereo partly drawn) [Example 43, 4-((aR)-6-((5-Phenyl-1,3,4-thiadiazol-2-yl)amino)spiro[3.3]heptan-2-yl)phthalazin-1(2H)-one(2H)-one]
7 | 5.1 to 15 | CC(C)(O)Cn1nc(C(=O)NC2CC3(C2)CC(c2n[nH]c(=O)c4ccccc24)C3)c2ccc(/C=C\C3CC3)cc21 (stereo not shown) [Example 151, 6-((Z)-2-cyclopropylvinyl)-1-(2-hydroxy-2-methylpropyl)-N-((αR)-6-(4-oxo-3,4-dihydrophthalazin-1-yl)spiro[3.3]heptan-2-yl)-1H-indazole-3-carboxamide]

The next lines start with the molecule.

Row | Compound | IC50 [nM]
8 | Cc1cc(C)cc(Nc2ccc3ncc(C(=O)NC4CC5(C4)CC(c4n[nH]c(=O)c6ccccc46)C5)n3n2)c1 [Example 283, 6-((3,5-dimethylphenyl)amino)-N-((aR)-6-(4-oxo-3,4-dihydrophthalazin-1-yl)spiro[3.3]heptan-2-yl)imidazo[1,2-b]pyridazine-3-carboxamide] | 100 to 2100
9 | [H][C@]1(c2n[nH]c(=O)c3ccccc32)C[C@]2(C[C@@H](NC(=O)c3cc4nccnc4s3)C2)C1 (stereo partly drawn) [Example 303, N-((aR)-6-(4-oxo-3,4-dihydrophthalazin-1-yl)spiro[3.3]heptan-2-yl)thieno[2,3-b]pyrazine-6-carboxamide] | 5.1 to 15
10 | O=C(NC1CC2(C1)CC(c1n[nH]c(=O)c3ccccc13)C2)c1cnn2cc(OC3CCS(=O)(=O)CC3)ccc12 (stereo not drawn) [Example 132, 6-((1,1-dioxidotetrahydro-2H-thiopyran-4-yl)oxy)-N-((αR)-6-(4-oxo-3,4-dihydrophthalazin-1-yl)spiro[3.3]heptan-2-yl)pyrazolo[1,5-α]pyridine-3-carboxamide] | 0.2 to 2
11 | Cc1nc(N2CCC3CC32)sc1C(=O)NC1CC2(C1)CC(c1n[nH]c(=O)c3ccccc13)C2 [Example 40, rel-2-[(1S,5R)-2-azabicyclo[3.1.0]hexan-2-yl]-4-methyl-N-[(aR)-6-(4-oxo-3,4-dihydrophthalazin-1-yl)spiro[3.3]heptan-2-yl]-1,3-thiazole-5-carboxamide] | 2.01 to 5
12 | O=C(N[C@H]1CC2(C1)C[C@H](c1n[nH]c(=O)c3ccccc31)C2)N1Cc2ccccc2C1 (stereo partly drawn) [Example 51, N-((aR)-6-(4-Oxo-3,4-dihydrophthalazin-1-yl)spiro[3.3]heptan-2-yl)isoindoline-2-carboxamide] | 5.1 to 15
13 | Cc1cccc2c(C(=O)N[C@H]3CC4(C3)C[C@H](c3n[nH]c(=O)c5ccccc53)C4)cnn12 (stereo partly drawn) [Example 123, 7-methyl-N-((aR)-6-(4-oxo-3,4-dihydrophthalazin-1-yl)spiro[3.3]heptan-2-yl)pyrazolo[1,5-a]pyridine-3-carboxamide] | 2.01 to 5
14 | O=C(NC1CC2(C1)CC(c1n[nH]c(=O)c3ccccc13)C2)c1noc2ccccc12 [Example 71, N-((aR)-6-(4-oxo-3,4-dihydrophthalazin-1-yl)spiro[3.3]heptan-2-yl)benzo[d]isoxazole-3-carboxamide] | 5.1 to 15
15 | [H][C@]1(c2n[nH]c(=O)c3ccccc32)C[C@]2(C[C@@H](NC(=O)c3cnc4c(C)cc(F)cn34)C2)C1 (stereo partly drawn) [Example 405, 6-fluoro-8-methyl-N-((aR)-6-(4-oxo-3,4-dihydrophthalazin-1-yl)spiro[3.3]heptan-2-yl)imidazo[1,2-a]pyridine-3-carboxamide] | 0.2 to 2
16 | Cc1ncc(-c2ccn3c(C(=O)NC4CC5(C4)CC(c4n[nH]c(=O)c6ccccc46)C5)cnc3c2)s1 [Example 455, 7-(2-methylthiazol-5-yl)-N-((aR)-6-(4-oxo-3,4-dihydrophthalazin-1-yl)spiro[3.3]heptan-2-yl)imidazo[1,2-a]pyridine-3-carboxamide] | 2.01 to 5
17 | Cc1c(C(=O)NC2CC3(C2)CC(c2n[nH]c(=O)c4ccccc24)C3)nnn1-c1ccccc1 [Example 114, 5-methyl-N-((aR)-6-(4-oxo-3,4-dihydrophthalazin-1-yl)spiro[3.3]heptan-2-yl)-1-phenyl-1H-1,2,3-triazole-4-carboxamide] | 2.01 to 5
18 | O=C(N[C@H]1CC2(C1)C[C@H](c1n[nH]c(=O)c3ccccc31)C2)c1cnn2cc(CN3CCOCC3)ccc12 (stereo partly drawn) [Example 200, 6-(morpholinomethyl)-N-((aR)-6-(4-oxo-3,4-dihydrophthalazin-1-yl)spiro[3.3]heptan-2-yl)pyrazolo[1,5-a]pyridine-3-carboxamide] | 5.1 to 15
19 | Cc1nc(N2CCOCC2)sc1C(=O)NC1CC2(C1)CC(c1n[nH]c(=O)c3ccccc13)C2 [Example 34, 4-methyl-2-(morpholin-4-yl)-N-[(aR)-6-(4-oxo-3,4-dihydrophthalazin-1-yl)spiro[3.3]heptan-2-yl]-1,3-thiazole-5-carboxamide] | 15.1 to 100
20 | O=C(NC1CC2(C1)CC(c1n[nH]c(=O)c3ccccc13)C2)c1ccnn1CCC(F)(F)F [Example 101, N-((aR)-6-(4-oxo-3,4-dihydrophthalazin-1-yl)spiro[3.3]heptan-2-yl)-1-(3,3,3-trifluoropropyl)-1H-pyrazole-5-carboxamide] | 15.1 to 100
21 | CC(C)n1cc(-c2ccc3c(C(=O)NC4CC5(C4)CC(c4n[nH]c(=O)c6ccccc46)C5)cnn3c2)cn1 [Example 220, 6-(1-isopropyl-1H-pyrazol-4-yl)-N-((aR)-6-(4-oxo-3,4-dihydrophthalazin-1-yl)spiro[3.3]heptan-2-yl)pyrazolo[1,5-a]pyridine-3-carboxamide] | 0.2 to 2
22 | [H][C@]1(c2n[nH]c(=O)c3ccccc32)C[C@]2(C[C@@H](NC(=O)c3ccc4c(c3)ncn4C)C2)C1 (stereo partly drawn) [Example 317, 1-methyl-N-((aR)-6-(4-oxo-3,4-dihydrophthalazin-1-yl)spiro[3.3]heptan-2-yl)-1H-benzo[d] imidazole-5-carboxamide] | 5.1 to 15
